Test results reported in ChEMBL document CHEMBL3272306, “Synthesis and antimicrobial activity of some novel heterocycles. Azolo-as-triazines” (1976).
In brackets after ≈: the same amount, converted by molar mass.

Experiments:
Assay type in all cases: functional
Escherichia coli = test: Antibacterial activity against clinical isolate Escherichia coli assessed as prevention of visible growth at 25 degC after 24 hrs by broth dilution assay
Pseudomonas aeruginosa = test: Antibacterial activity against clinical isolate Pseudomonas aeruginosa assessed as prevention of visible growth at 25 degC after 24 hrs by broth dilution assay
Staphylococcus aureus = test: Antibacterial activity against clinical isolate Staphylococcus aureus assessed as prevention of visible growth at 25 degC after 24 hrs by broth dilution assay
Candida albicans = test: Antifungal activity against clinical isolate Candida albicans assessed as prevention of visible growth at 25 degC after 24 hrs by broth dilution assay
[1] = system: Trichophyton mentagrophytes; test: Antifungal activity against clinical isolate Trichophyton mentagrophytes assessed as prevention of visible growth at 30 degC after 48 hrs by broth dilution assay

Compound | MIC (Escherichia coli) | MIC (Pseudomonas aeruginosa) | MIC (Staphylococcus aureus) | MIC (Candida albicans) | MIC [1]
CCOC(=O)c1nnc2ccnn2c1N | > 400 µM | 160 µM (≈ 33.2 µg/mL) |  |  | 
CCCC(=O)c1nnc2c(C(N)=O)nnn2c1CCC | > 400 µM |  | 400 µM (≈ 111 µg/mL) |  | 
CC(=O)c1nnc2ccnn2c1C | > 400 µM | > 400 µM | > 400 µM | > 400 µM | > 400 µM
CCCC(=O)c1nnc2c(-c3ccc(Cl)cc3)cnn2c1CCC | > 400 µM | 400 µM (≈ 137 µg/mL) |  |  | 
N#Cc1nnc2ccnn2c1N | > 400 µM | > 400 µM | > 400 µM | > 400 µM | > 400 µM
CCCc1c(C(=O)OCC)nnc2ccnn12 | > 400 µM | > 400 µM | > 400 µM | > 400 µM | > 400 µM
CCCc1cnnc2ccnn12 | > 400 µM | > 400 µM | > 400 µM | > 400 µM | > 400 µM
Cc1nnc2ccnn2c1C | > 400 µM | > 400 µM | > 400 µM | > 400 µM | > 400 µM
Cc1cnnc2ccnn12 | > 400 µM | > 400 µM | > 400 µM | > 400 µM | > 400 µM
Cc1cnnc2c(Br)cnn12 | > 400 µM | > 400 µM | > 400 µM | > 400 µM | > 400 µM
CCCC(=O)c1nnc2nc(SCc3ccccc3)nn2c1CCC | > 400 µM |  | 400 µM (≈ 142 µg/mL) |  | 
CCCC(=O)c1nnc2nc(S(=O)(=O)Cc3ccccc3)nn2c1CCC | > 400 µM | > 400 µM | > 400 µM | > 400 µM | > 400 µM
CCCC(=O)c1nnc2ncnn2c1CCC | > 400 µM | > 400 µM | > 400 µM | > 400 µM | > 400 µM
CCCC(=O)c1nnc2nc(NC)nn2c1CCC | > 400 µM | > 400 µM | > 400 µM | > 400 µM | > 400 µM
CCOC(=O)c1nnc2nccn2c1N | > 400 µM | > 400 µM | > 400 µM | > 400 µM | > 400 µM
CCCC(=O)c1nnc2nccn2c1CCC | > 400 µM | > 400 µM | > 400 µM | > 400 µM | > 400 µM
Cc1nnc2nccn2c1C | > 400 µM | > 400 µM | > 400 µM | > 400 µM | > 400 µM
CCCC(=O)c1nnc2c(C(N)=O)ncn2c1CCC | > 400 µM | > 400 µM | > 400 µM | > 400 µM | > 400 µM
CC(=O)c1nnc2c(C(N)=O)ncn2c1C | > 400 µM | > 400 µM | > 400 µM | > 400 µM | > 400 µM

Second part, the compound after the results:

MIC (Escherichia coli) | MIC (Pseudomonas aeruginosa) | MIC (Staphylococcus aureus) | MIC (Candida albicans) | MIC [1] | Compound
> 400 µM |  |  | 400 µM (≈ 122 µg/mL) |  | CCCC(=O)c1nnc2c(C(=O)OCC)cnn2c1CCC
> 400 µM | > 400 µM | > 400 µM | > 400 µM | > 400 µM | CCCC(=O)c1nnc2c(C(N)=O)cnn2c1CCC
> 400 µM | > 400 µM | > 400 µM | > 400 µM | > 400 µM | CCC(=O)c1nnc2c(C(N)=O)cnn2c1CC
> 400 µM | > 400 µM | > 400 µM | > 400 µM | > 400 µM | CCC(=O)c1nnc2ccnn2c1CC
> 400 µM |  |  |  | 160 µM (≈ 45.3 µg/mL) | CCC(=O)c1nnc2c(Br)cnn2c1CC
> 400 µM | > 400 µM | > 400 µM | > 400 µM | > 400 µM | CCC(=O)c1nnc2cc(-c3ccc(OC)cc3)nn2c1CC
> 400 µM | > 400 µM | > 400 µM | > 400 µM | > 400 µM | CCCc1cnnc2c(Br)cnn12
> 400 µM | > 400 µM | > 400 µM | > 400 µM | > 400 µM | Cc1nnc2c(Br)cnn2c1C
> 400 µM | > 400 µM | > 400 µM | > 400 µM | > 400 µM | CCC(=O)c1nnc2nccn2c1CC
> 400 µM | > 400 µM | > 400 µM | > 400 µM | > 400 µM | CCC(=O)c1nnc2c(C(N)=O)ncn2c1CC
